One block for each compound: values may come before it. Calls of active or inactive are those of the source. The rule behind the calls is not given here.
Key:
Pseudomonas aeruginosa = assay: (§1) Antagonist activity at rhlA in Pseudomonas aeruginosa harboring rhlA-gfp gene assessed as inhibition of […]-induced quorum sensing by green fluorescence protein reporter assay
[1] = Agonist activity at lasB in Escherichia coli harboring lasB-gfp gene by green fluorescence protein reporter assay
[2] = Antagonist activity at luxI in Escherichia coli harboring luxI-gfp gene assessed as inhibition of 3-oxo-C6-HSL-induced quorum sensing by green fluorescence protein reporter assay
[3] = biological target: Elastase (Pseudomonas aeruginosa (strain ATCC 15692 / PAO1 / 1C / PRS 101 / LMG12228)) (UniProt P14756); assay: Antagonist activity at lasB in Pseudomonas aeruginosa harboring lasB-gfp gene assessed as inhibition of […]-induced quorum sensing by green fluorescence protein reporter assay
[4] = as §1

Elastase (Pseudomonas aeruginosa (strain ATCC 15692 / PAO1 / 1C / PRS 101 / LMG12228)), sequence (P14756 198-498 limits assumed): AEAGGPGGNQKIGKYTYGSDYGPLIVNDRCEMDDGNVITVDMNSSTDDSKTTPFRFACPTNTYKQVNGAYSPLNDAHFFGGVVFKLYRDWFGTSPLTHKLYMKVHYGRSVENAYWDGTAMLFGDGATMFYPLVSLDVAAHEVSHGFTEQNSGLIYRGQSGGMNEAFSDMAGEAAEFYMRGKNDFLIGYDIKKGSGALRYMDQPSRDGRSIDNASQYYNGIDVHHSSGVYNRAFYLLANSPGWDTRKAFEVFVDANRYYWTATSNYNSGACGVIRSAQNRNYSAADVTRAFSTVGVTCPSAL

SMILES: CCCCc1cn(CC(=O)N[C@H]2CCOC2=O)nn1
- inhibition (Pseudomonas aeruginosa): inactive
- EC50 [1]: 57 µM
- IC50 [2]: 751 µM
- inhibition [3]: inactive

- EC50 [1]: 2 µM
SMILES: Nc1cccc(-n2cc(CCC(=O)N[C@H]3CCOC3=O)nn2)c1

- EC50 [1]: 1 µM
SMILES: CCCCCc1cn(CC(=O)N[C@H]2CCOC2=O)nn1

SMILES: O=C(Cn1cc(-c2ccsc2)nn1)N[C@H]1CCOC1=O
- IC50 [4]: 1030 µM
- IC50 [2]: 55 µM

SMILES: O=C(Cn1cc(CSc2ccccc2)nn1)N[C@H]1CCOC1=O
- inhibition (Pseudomonas aeruginosa): inactive
- EC50 [1]: 2 µM
- IC50 [2]: 602 µM

SMILES: O=C(Cn1cc(-c2ccccc2)nn1)N[C@H]1CCOC1=O
- inhibition (Pseudomonas aeruginosa): inactive
- IC50 [2]: 192 µM
- inhibition [3]: inactive

SMILES: O=C(Cn1cc(C2CCCC2)nn1)N[C@H]1CCOC1=O
- IC50 [4]: 898 µM
- EC50 [1]: 3 µM
- IC50 [2]: 50 µM

- EC50 [1]: 8 µM
SMILES: O=C(Cn1cc(CC2CCCCC2)nn1)N[C@H]1CCOC1=O

SMILES: O=C(Cn1cc(C2CC2)nn1)N[C@H]1CCOC1=O
- IC50 [4]: 799 µM
- IC50 [2]: 88 µM

SMILES: O=C(Cn1cc(C2CCCCC2)nn1)N[C@H]1CCOC1=O
- inhibition (Pseudomonas aeruginosa): inactive
- EC50 [1]: 44 µM
- IC50 [2]: 342 µM

SMILES: [N-]=[N+]=Nc1ccc(C(=O)N[C@H]2CCOC2=O)cc1
- inhibition (Pseudomonas aeruginosa): inactive
- IC50 [2]: 244 µM

SMILES: O=Cc1cccc(-n2cc(CCC(=O)N[C@H]3CCOC3=O)nn2)c1
- inhibition (Pseudomonas aeruginosa): inactive
- EC50 [1]: 71 µM
- IC50 [2]: 5 µM

SMILES: [N-]=[N+]=Nc1cccc(C(=O)N[C@H]2CCOC2=O)c1
- inhibition (Pseudomonas aeruginosa): inactive
- IC50 [2]: 223 µM
- inhibition [3]: inactive

SMILES: CCCCCCc1cn(CC(=O)N[C@H]2CCOC2=O)nn1
- inhibition (Pseudomonas aeruginosa): inactive
- EC50 [1]: 12 µM
- IC50 [2]: 578 µM

SMILES: CCCc1cn(CC(=O)N[C@H]2CCOC2=O)nn1
- IC50 [4]: 927 µM
- IC50 [2]: 71 µM

SMILES: Nc1ccc(-n2cc(-c3ccc(C(=O)N[C@H]4CCOC4=O)cc3)nn2)cc1
- inhibition (Pseudomonas aeruginosa): inactive
- IC50 [2]: 95 µM
- inhibition [3]: inactive

Source: ChEMBL document CHEMBL3400119, “Triazole-containing N-acyl homoserine lactones targeting the quorum sensing system in Pseudomonas aeruginosa” (Bioorg Med Chem, 2015)
